Results: ChEMBL document CHEMBL3797052 (Eur J Med Chem, 2016)

System: not listed separately
Test: Cytotoxicity against human HCT116 cells assessed as growth inhibition at 100 uM after 2 days by MTT assay
Type: functional
Details: HCT-116, 48 h, read-out: GI

Compound | inhibition of growth at 100 µM
CNC(=O)c1cc(Oc2ccc3nc(NC(=O)Nc4cc(C(F)(F)F)cc(C(F)(F)F)c4)sc3c2)ccn1 | 98.4%

System: not listed separately
Test: Cytotoxicity against human HCT116 cells assessed as growth inhibition at 10 uM after 2 days by MTT assay
Type: functional
Details: HCT-116, 48 h, read-out: GI

Compound | inhibition of growth at 10 µM
CNC(=O)c1cc(Oc2ccc3nc(NC(=O)Nc4cc(C(F)(F)F)cc(C(F)(F)F)c4)sc3c2)ccn1 | 87.5%

System: not listed separately
Test: Cytotoxicity against human SKBR3 cells assessed as growth inhibition at 100 uM after 2 days by MTT assay
Type: functional
Details: SK-BR-3, 48 h, read-out: GI

Compound | inhibition of growth at 100 µM
CNC(=O)c1cc(Oc2ccc3nc(NC(=O)Nc4cc(C(F)(F)F)cc(C(F)(F)F)c4)sc3c2)ccn1 | 96.3%

System: not listed separately
Test: Cytotoxicity against human SKBR3 cells assessed as growth inhibition at 10 uM after 2 days by MTT assay
Type: functional
Details: SK-BR-3, 48 h, read-out: GI

Compound | inhibition of growth at 10 µM
CNC(=O)c1cc(Oc2ccc3nc(NC(=O)Nc4cc(C(F)(F)F)cc(C(F)(F)F)c4)sc3c2)ccn1 | 88.1%

System: not listed separately
Test: Antiproliferative activity against human RPMI8226 cells assessed as cell growth at 10^-5 M after 48 hrs by sulforhodamine B assay
Type: functional
Details: RPMI-8226, 48 h, read-out: Activity

Compound | growth at 10 µM
CNC(=O)c1cc(Oc2ccc3nc(NC(=O)Nc4cc(C(F)(F)F)cc(C(F)(F)F)c4)sc3c2)ccn1 | -37%

System: A549
Test: Antiproliferative activity against human A549/ATCC cells assessed as cell growth at 10^-5 M after 48 hrs by sulforhodamine B assay
Type: functional
Details: A549, 48 h, read-out: Activity

Compound | growth at 10 µM
CNC(=O)c1cc(Oc2ccc3nc(NC(=O)Nc4cc(C(F)(F)F)cc(C(F)(F)F)c4)sc3c2)ccn1 | -91%

System: not listed separately
Test: Antiproliferative activity against human HOP62 cells assessed as cell growth at 10^-5 M after 48 hrs by sulforhodamine B assay
Type: functional
Details: HOP-62, 48 h, read-out: Activity

Compound | growth at 10 µM
CNC(=O)c1cc(Oc2ccc3nc(NC(=O)Nc4cc(C(F)(F)F)cc(C(F)(F)F)c4)sc3c2)ccn1 | -72%

System: not listed separately
Test: Antiproliferative activity against human HOP92 cells assessed as cell growth at 10^-5 M after 48 hrs by sulforhodamine B assay
Type: functional
Details: HOP-92, 48 h, read-out: Activity

Compound | growth at 10 µM
CNC(=O)c1cc(Oc2ccc3nc(NC(=O)Nc4cc(C(F)(F)F)cc(C(F)(F)F)c4)sc3c2)ccn1 | -69%

System: NCI-H226
Test: Antiproliferative activity against human NCI-H226 cells assessed as cell growth at 10^-5 M after 48 hrs by sulforhodamine B assay
Type: functional
Details: NCI-H226, 48 h, read-out: Activity

Compound | growth at 10 µM
CNC(=O)c1cc(Oc2ccc3nc(NC(=O)Nc4cc(C(F)(F)F)cc(C(F)(F)F)c4)sc3c2)ccn1 | -57%

System: NCI-H460
Test: Antiproliferative activity against human NCI-H460 cells assessed as cell growth at 10^-5 M after 48 hrs by sulforhodamine B assay
Type: functional
Details: NCI-H460, 48 h, read-out: Activity

Compound | growth at 10 µM
CNC(=O)c1cc(Oc2ccc3nc(NC(=O)Nc4cc(C(F)(F)F)cc(C(F)(F)F)c4)sc3c2)ccn1 | -75%

System: NCI-H522
Test: Antiproliferative activity against human NCI-H522 cells assessed as cell growth at 10^-5 M after 48 hrs by sulforhodamine B assay
Type: functional
Details: NCI-H522, 48 h, read-out: Activity

Compound | growth at 10 µM
CNC(=O)c1cc(Oc2ccc3nc(NC(=O)Nc4cc(C(F)(F)F)cc(C(F)(F)F)c4)sc3c2)ccn1 | -58%

System: not listed separately
Test: Antiproliferative activity against human COLO205 cells assessed as cell growth at 10^-5 M after 48 hrs by sulforhodamine B assay
Type: functional
Details: COLO 205, 48 h, read-out: Activity

Compound | growth at 10 µM
CNC(=O)c1cc(Oc2ccc3nc(NC(=O)Nc4cc(C(F)(F)F)cc(C(F)(F)F)c4)sc3c2)ccn1 | -79%

System: not listed separately
Test: Antiproliferative activity against human HCT15 cells assessed as cell growth at 10^-5 M after 48 hrs by sulforhodamine B assay
Type: functional
Details: HCT-15, 48 h, read-out: Activity

Compound | growth at 10 µM
CNC(=O)c1cc(Oc2ccc3nc(NC(=O)Nc4cc(C(F)(F)F)cc(C(F)(F)F)c4)sc3c2)ccn1 | -70%

System: KM12
Test: Antiproliferative activity against human KM12 cells assessed as cell growth at 10^-5 M after 48 hrs by sulforhodamine B assay
Type: functional
Details: KM12, 48 h, read-out: Activity

Compound | growth at 10 µM
CNC(=O)c1cc(Oc2ccc3nc(NC(=O)Nc4cc(C(F)(F)F)cc(C(F)(F)F)c4)sc3c2)ccn1 | -58%

System: not listed separately
Test: Antiproliferative activity against human SNB75 cells assessed as cell growth at 10^-5 M after 48 hrs by sulforhodamine B assay
Type: functional
Details: SNB-75, 48 h, read-out: Activity

Compound | growth at 10 µM
CNC(=O)c1cc(Oc2ccc3nc(NC(=O)Nc4cc(C(F)(F)F)cc(C(F)(F)F)c4)sc3c2)ccn1 | -66%

System: Malme-3M
Test: Antiproliferative activity against human MALME-3M cells assessed as cell growth at 10^-5 M after 48 hrs by sulforhodamine B assay
Type: functional
Details: read-out: Activity

Compound | growth at 10 µM
CNC(=O)c1cc(Oc2ccc3nc(NC(=O)Nc4cc(C(F)(F)F)cc(C(F)(F)F)c4)sc3c2)ccn1 | -74%

System: M14
Test: Antiproliferative activity against human M14 cells assessed as cell growth at 10^-5 M after 48 hrs by sulforhodamine B assay
Type: functional
Details: M14, 48 h, read-out: Activity

Compound | growth at 10 µM
CNC(=O)c1cc(Oc2ccc3nc(NC(=O)Nc4cc(C(F)(F)F)cc(C(F)(F)F)c4)sc3c2)ccn1 | -74%

System: SK-MEL-2
Test: Antiproliferative activity against human SK-MEL-2 cells assessed as cell growth at 10^-5 M after 48 hrs by sulforhodamine B assay
Type: functional
Details: SK-MEL-2, 48 h, read-out: Activity

Compound | growth at 10 µM
CNC(=O)c1cc(Oc2ccc3nc(NC(=O)Nc4cc(C(F)(F)F)cc(C(F)(F)F)c4)sc3c2)ccn1 | -53%

System: SK-MEL-28
Test: Antiproliferative activity against human SK-MEL-28 cells assessed as cell growth at 10^-5 M after 48 hrs by sulforhodamine B assay
Type: functional
Details: SK-MEL-28, 48 h, read-out: Activity

Compound | growth at 10 µM
CNC(=O)c1cc(Oc2ccc3nc(NC(=O)Nc4cc(C(F)(F)F)cc(C(F)(F)F)c4)sc3c2)ccn1 | -75%

System: not listed separately
Test: Antiproliferative activity against human UACC257 cells assessed as cell growth at 10^-5 M after 48 hrs by sulforhodamine B assay
Type: functional
Details: UACC-257, 48 h, read-out: Activity

Compound | growth at 10 µM
CNC(=O)c1cc(Oc2ccc3nc(NC(=O)Nc4cc(C(F)(F)F)cc(C(F)(F)F)c4)sc3c2)ccn1 | -82%

System: not listed separately
Test: Antiproliferative activity against human IGROV1 cells assessed as cell growth at 10^-5 M after 48 hrs by sulforhodamine B assay
Type: functional
Details: IGROV-1, 48 h, read-out: Activity

Compound | growth at 10 µM
CNC(=O)c1cc(Oc2ccc3nc(NC(=O)Nc4cc(C(F)(F)F)cc(C(F)(F)F)c4)sc3c2)ccn1 | -62%

System: not listed separately
Test: Antiproliferative activity against human OVCAR3 cells assessed as cell growth at 10^-5 M after 48 hrs by sulforhodamine B assay
Type: functional
Details: OVCAR-3, 48 h, read-out: Activity

Compound | growth at 10 µM
CNC(=O)c1cc(Oc2ccc3nc(NC(=O)Nc4cc(C(F)(F)F)cc(C(F)(F)F)c4)sc3c2)ccn1 | -93%

System: not listed separately
Test: Antiproliferative activity against human OVCAR4 cells assessed as cell growth at 10^-5 M after 48 hrs by sulforhodamine B assay
Type: functional
Details: OVCAR-4, 48 h, read-out: Activity

Compound | growth at 10 µM
CNC(=O)c1cc(Oc2ccc3nc(NC(=O)Nc4cc(C(F)(F)F)cc(C(F)(F)F)c4)sc3c2)ccn1 | -64%

System: not listed separately
Test: Antiproliferative activity against human OVCAR8 cells assessed as cell growth at 10^-5 M after 48 hrs by sulforhodamine B assay
Type: functional
Details: OVCAR-8, 48 h, read-out: Activity

Compound | growth at 10 µM
CNC(=O)c1cc(Oc2ccc3nc(NC(=O)Nc4cc(C(F)(F)F)cc(C(F)(F)F)c4)sc3c2)ccn1 | -93%

System: not listed separately
Test: Antiproliferative activity against human SKOV3 cells assessed as cell growth at 10^-5 M after 48 hrs by sulforhodamine B assay
Type: functional
Details: SK-OV-3, 48 h, read-out: Activity

Compound | growth at 10 µM
CNC(=O)c1cc(Oc2ccc3nc(NC(=O)Nc4cc(C(F)(F)F)cc(C(F)(F)F)c4)sc3c2)ccn1 | -71%

System: 786-0
Test: Antiproliferative activity against human 786-0 cells assessed as cell growth at 10^-5 M after 48 hrs by sulforhodamine B assay
Type: functional
Details: 786-0, 48 h, read-out: Activity

Compound | growth at 10 µM
CNC(=O)c1cc(Oc2ccc3nc(NC(=O)Nc4cc(C(F)(F)F)cc(C(F)(F)F)c4)sc3c2)ccn1 | -89%

System: A498
Test: Antiproliferative activity against human A498 cells assessed as cell growth at 10^-5 M after 48 hrs by sulforhodamine B assay
Type: functional
Details: A498, 48 h, read-out: Activity

Compound | growth at 10 µM
CNC(=O)c1cc(Oc2ccc3nc(NC(=O)Nc4cc(C(F)(F)F)cc(C(F)(F)F)c4)sc3c2)ccn1 | -79%

System: not listed separately
Test: Antiproliferative activity against human Caki1 cells assessed as cell growth at 10^-5 M after 48 hrs by sulforhodamine B assay
Type: functional
Details: CAKI-1, 48 h, read-out: Activity

Compound | growth at 10 µM
CNC(=O)c1cc(Oc2ccc3nc(NC(=O)Nc4cc(C(F)(F)F)cc(C(F)(F)F)c4)sc3c2)ccn1 | -77%

System: SN12C
Test: Antiproliferative activity against human SN12C cells assessed as cell growth at 10^-5 M after 48 hrs by sulforhodamine B assay
Type: functional
Details: read-out: Activity

Compound | growth at 10 µM
CNC(=O)c1cc(Oc2ccc3nc(NC(=O)Nc4cc(C(F)(F)F)cc(C(F)(F)F)c4)sc3c2)ccn1 | -58%

System: not listed separately
Test: Antiproliferative activity against human TK10 cells assessed as cell growth at 10^-5 M after 48 hrs by sulforhodamine B assay
Type: functional
Details: TK-10, 48 h, read-out: Activity

Compound | growth at 10 µM
CNC(=O)c1cc(Oc2ccc3nc(NC(=O)Nc4cc(C(F)(F)F)cc(C(F)(F)F)c4)sc3c2)ccn1 | -79%

System: not listed separately
Test: Antiproliferative activity against human UO31 cells assessed as cell growth at 10^-5 M after 48 hrs by sulforhodamine B assay
Type: functional
Details: UO-31, 48 h, read-out: Activity

Compound | growth at 10 µM
CNC(=O)c1cc(Oc2ccc3nc(NC(=O)Nc4cc(C(F)(F)F)cc(C(F)(F)F)c4)sc3c2)ccn1 | -87%

System: MCF7
Test: Antiproliferative activity against human MCF7 cells assessed as cell growth at 10^-5 M after 48 hrs by sulforhodamine B assay
Type: functional
Details: MCF7, 48 h, read-out: Activity

Compound | growth at 10 µM
CNC(=O)c1cc(Oc2ccc3nc(NC(=O)Nc4cc(C(F)(F)F)cc(C(F)(F)F)c4)sc3c2)ccn1 | -59%

System: MDA-MB-231
Test: Antiproliferative activity against human MDA-MB-231 cells assessed as cell growth at 10^-5 M after 48 hrs by sulforhodamine B assay
Type: functional
Details: MDA-MB-231, 48 h, read-out: Activity

Compound | growth at 10 µM
CNC(=O)c1cc(Oc2ccc3nc(NC(=O)Nc4cc(C(F)(F)F)cc(C(F)(F)F)c4)sc3c2)ccn1 | -64%

System: not listed separately
Test: Antiproliferative activity against human Hs 578T cells assessed as cell growth at 10^-5 M after 48 hrs by sulforhodamine B assay
Type: functional
Details: read-out: Activity

Compound | growth at 10 µM
CNC(=O)c1cc(Oc2ccc3nc(NC(=O)Nc4cc(C(F)(F)F)cc(C(F)(F)F)c4)sc3c2)ccn1 | -34%

System: not listed separately
Test: Antiproliferative activity against human BT549 cells assessed as cell growth at 10^-5 M after 48 hrs by sulforhodamine B assay
Type: functional
Details: BT-549, 48 h, read-out: Activity

Compound | growth at 10 µM
CNC(=O)c1cc(Oc2ccc3nc(NC(=O)Nc4cc(C(F)(F)F)cc(C(F)(F)F)c4)sc3c2)ccn1 | -71%

System: T47D
Test: Antiproliferative activity against human T47D cells assessed as cell growth at 10^-5 M after 48 hrs by sulforhodamine B assay
Type: functional
Details: read-out: Activity

Compound | growth at 10 µM
CNC(=O)c1cc(Oc2ccc3nc(NC(=O)Nc4cc(C(F)(F)F)cc(C(F)(F)F)c4)sc3c2)ccn1 | -56%
